Experimental data reported in patent US10253081B2, “Glucagon analogues” (Zealand Pharma A/S, priority 2012, dated 2019).
pEC50: −log10 of the molar value. Read-outs that look alike come from different tables or passages of the source. *1 amine or outer side, *2 acyl side, *3 side chain or, on linkers, in order; H or OH if unused. Where a SMILES comes first, the peptide text is derived from it. Side-chain parts run from the residue outwards. [ ]: non-standard residue; d: D form. The star is where a group is joined. γGlu = O=C(O)[C@H](CCC(=O)[*:2])N[*:1]; Palmitoyl = CCCCCCCCCCCCCCCC(=O)*; Aib = CC(C)(N)C(=O)O

Key:
[1] = target: T1, human glucagon receptor (Glucagon-R) (Homo sapiens, UniProt P47871); assay: Glucagon receptor efficacy assay (cAMP AlphaScreen, CHO cells); assay type: cell-based; conditions: Table 1A; CHO cells expressing human Glucagon-R, cAMP; read-out: EC50 hGCGR CHO-K1
T1 construct: expressed in transfected cells
T1 sequence (P47871 26-477): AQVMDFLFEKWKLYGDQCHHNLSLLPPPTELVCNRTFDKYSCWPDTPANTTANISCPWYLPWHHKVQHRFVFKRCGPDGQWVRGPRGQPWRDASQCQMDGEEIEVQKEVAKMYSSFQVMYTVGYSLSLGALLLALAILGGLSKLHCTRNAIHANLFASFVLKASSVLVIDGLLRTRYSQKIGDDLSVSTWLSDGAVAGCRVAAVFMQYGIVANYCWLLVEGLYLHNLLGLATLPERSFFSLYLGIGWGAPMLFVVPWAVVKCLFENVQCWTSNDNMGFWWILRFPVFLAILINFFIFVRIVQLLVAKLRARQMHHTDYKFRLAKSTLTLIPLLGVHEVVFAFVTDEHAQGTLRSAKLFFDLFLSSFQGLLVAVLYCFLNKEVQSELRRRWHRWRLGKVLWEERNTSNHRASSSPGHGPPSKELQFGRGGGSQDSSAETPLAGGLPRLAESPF
How it was run: (§1)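 Stably transfected CHO clones expressing human GLP-1R or glucagon receptor were treated with increasing peptide concentrations for 15 min at room temperature in KRBH containing 0.1 mM IBMX. After lysis, cAMP was quantified by AlphaScreen; EC50 and efficacy relative to GLP-1 or glucagon reference came from curve fitting.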

[2] = target: T2, human glucagon-like peptide 1 receptor (GLP-1R) (Homo sapiens, UniProt P43220); assay: GLP-1 receptor efficacy assay (cAMP AlphaScreen, CHO cells); assay type: cell-based; conditions: Table 1A; for pEC50: CHO cells expressing human GLP-1-R, cAMP, read-out: EC50 hGLP-1R CHO-K1; for Ratio GLP-1/Glucagon: EC50 [GLP-1R]/EC50 [Glucagon-R]
T2 construct: expressed in transfected cells
T2 sequence (P43220 24-463): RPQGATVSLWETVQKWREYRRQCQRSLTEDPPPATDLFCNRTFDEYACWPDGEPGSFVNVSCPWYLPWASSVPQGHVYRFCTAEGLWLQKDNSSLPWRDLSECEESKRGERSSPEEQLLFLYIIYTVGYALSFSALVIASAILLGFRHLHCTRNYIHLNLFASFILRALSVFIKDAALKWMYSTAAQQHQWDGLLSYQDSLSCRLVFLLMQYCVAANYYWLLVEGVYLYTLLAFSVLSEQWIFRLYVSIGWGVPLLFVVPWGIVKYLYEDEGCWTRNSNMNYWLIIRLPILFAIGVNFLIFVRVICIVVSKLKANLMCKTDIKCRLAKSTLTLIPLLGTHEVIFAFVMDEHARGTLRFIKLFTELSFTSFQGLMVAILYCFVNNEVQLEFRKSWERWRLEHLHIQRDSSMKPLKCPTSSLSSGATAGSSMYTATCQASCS
How it was run: as §1

[3] = Pharmacokinetic parameters after subcutaneous and intravenous administration to mice; assay type: in vivo; conditions: male, mouse, plasma, 20 nmol/kg, C57Bl/6J mice; for half-life: read-out: Terminal half life (converted); for MRT: read-out: Mean Residence Time
How it was run: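 Male C57Bl/6J mice (8–11 weeks) given GLP-1-glucagon dual agonists at 20 nmol/kg s.c. (neck) or i.v. (tail vein), dosing solution 4 μM in PBS with 25 mM phosphate, pH 7.4. Plasma sampled to 24 h, measured by LC-MS/MS; parameters by non-compartmental analysis.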

| pEC50 [1] | pEC50 [2] | Ratio GLP-1/Glucagon [2] | clearance ([3]; IV) [mL/min/kg] | half-life ([3]; IV) [min] | Tmax ([3]; SC) [h] | bioavailability ([3]; SC) [%] | MRT ([3]; SC) [h] | half-life ([3]; SC) [min] | SMILES |
| --- | --- | --- | --- | --- | --- | --- | --- | --- | --- |
| 9.51 | 9.11 | 2.48 | 0.185 | 300 | 4 | 59 | 11.2 | 306 | CCCCCCCCCCCCCCCC(=O)N[C@@H](CCC(=O)NCCCC[C@H](NC(=O)[C@H](CO)NC(=O)[C@H](CC(=O)O)NC(=O)[C@H](CC(C)C)NC(=O)[C@H](Cc1ccc(O)cc1)NC(=O)[C@H](CCCCN)NC(=O)[C@H](CO)NC(=O)[C@H](Cc1ccc(O)cc1)NC(=O)[C@H](CC(=O)O)NC(=O)[C@H](CO)NC(=O)[C@@H](NC(=O)[C@H](Cc1ccccc1)NC(=O)[C@@H](NC(=O)CNC(=O)[C@H](CCC(N)=O)NC(=O)[C@H](CO)NC(=O)[C@@H](N)Cc1c[nH]cn1)[C@@H](C)O)[C@@H](C)O)C(=O)N[C@@H](C)C(=O)N[C@@H](C)C(=O)N[C@@H](Cc1c[nH]cn1)C(=O)N[C@@H](CC(=O)O)C(=O)N[C@@H](Cc1ccccc1)C(=O)N[C@H](C(=O)N[C@@H](CCC(=O)O)C(=O)N[C@@H](Cc1c[nH]c2ccccc12)C(=O)N[C@@H](CC(C)C)C(=O)N[C@@H](CC(C)C)C(=O)N[C@@H](CO)C(=O)N[C@@H](C)C(=O)O)C(C)C)C(=O)O [Compound 2, H-HSQGTFTSDYSKYLDS-K(Hexadecanoyl-isoGlu)-AAHDFVEWLLSA-OH] (H-HSQGTFTSDYSKYLDSK([γGlu-Palmitoyl])AAHDFVEWLLSA-OH) |
| 9.60 | 9.46 | 1.40 | 0.638 | 54 | 2 | 34 | 4.7 | 174 | CCCCCCCCCCCCCCCC(=O)N[C@@H](CCC(=O)NCCCC[C@H](NC(=O)[C@H](CO)NC(=O)[C@H](CC(=O)O)NC(=O)[C@H](CC(C)C)NC(=O)[C@H](Cc1ccc(O)cc1)NC(=O)[C@H](CCCCN)NC(=O)[C@H](CO)NC(=O)[C@H](Cc1ccc(O)cc1)NC(=O)[C@H](CC(=O)O)NC(=O)[C@H](CO)NC(=O)[C@@H](NC(=O)[C@H](Cc1ccccc1)NC(=O)[C@@H](NC(=O)CNC(=O)[C@H](CCC(N)=O)NC(=O)[C@H](CO)NC(=O)[C@@H](N)Cc1c[nH]cn1)[C@@H](C)O)[C@@H](C)O)C(=O)N[C@@H](C)C(=O)N[C@@H](C)C(=O)N[C@@H](Cc1c[nH]cn1)C(=O)N[C@@H](CC(=O)O)C(=O)N[C@@H](Cc1ccccc1)C(=O)N[C@H](C(=O)N[C@@H](CCC(=O)O)C(=O)N[C@@H](Cc1c[nH]c2ccccc12)C(=O)N[C@@H](CC(C)C)C(=O)N[C@@H](CC(C)C)C(=O)N[C@@H](CCCNC(=N)N)C(=O)O)C(C)C)C(=O)O [Compound 9, H-HSQGTFTSDYSKYLDS-K(Hexadecanoyl-isoGlu)-AAHDFVEWLLR-OH] (H-HSQGTFTSDYSKYLDSK([γGlu-Palmitoyl])AAHDFVEWLLR-OH) |
| 9.64 | 9.64 | 1.00 | 0.355 | 180 | 2 | 80 | 6.5 | 222 | CCCCCCCCCCCCCCCC(=O)N[C@@H](CCC(=O)NCCCC[C@H](NC(=O)[C@H](CCC(=O)O)NC(=O)[C@H](CC(=O)O)NC(=O)[C@H](CC(C)C)NC(=O)[C@H](Cc1ccc(O)cc1)NC(=O)[C@H](CCCCN)NC(=O)[C@H](CO)NC(=O)[C@H](Cc1ccc(O)cc1)NC(=O)[C@H](CC(=O)O)NC(=O)[C@H](CO)NC(=O)[C@@H](NC(=O)[C@H](Cc1ccccc1)NC(=O)[C@@H](NC(=O)CNC(=O)[C@H](CCC(N)=O)NC(=O)[C@H](CO)NC(=O)[C@@H](N)Cc1c[nH]cn1)[C@@H](C)O)[C@@H](C)O)C(=O)N[C@@H](C)C(=O)N[C@@H](C)C(=O)N[C@@H](Cc1c[nH]cn1)C(=O)N[C@@H](CCC(=O)O)C(=O)N[C@@H](Cc1ccccc1)C(=O)N[C@H](C(=O)N[C@@H](CCC(=O)O)C(=O)N[C@@H](Cc1c[nH]c2ccccc12)C(=O)N[C@@H](CC(C)C)C(=O)N[C@@H](CCC(=O)O)C(=O)N[C@@H](CO)C(=O)N[C@@H](C)C(N)=O)C(C)C)C(=O)O [Compound 10, H-HSQGTFTSDYSKYLDE-K(Hexadecanoyl-isoGlu)-AAHEFVEWLESA-NH2] (H-HSQGTFTSDYSKYLDEK([γGlu-Palmitoyl])AAHEFVEWLESA-NH2) |
| 9.37 | 9.43 | 0.86 | 0.225 | 246 | 6 | 43 | 8.3 | 258 | CCCCCCCCCCCCCCCC(=O)N[C@@H](CCC(=O)NCCCC[C@H](NC(=O)[C@H](CO)NC(=O)[C@H](CC(=O)O)NC(=O)[C@H](CC(C)C)NC(=O)[C@H](Cc1ccc(O)cc1)NC(=O)[C@H](CCCNC(=N)N)NC(=O)[C@H](CO)NC(=O)[C@H](Cc1ccc(O)cc1)NC(=O)[C@H](CC(=O)O)NC(=O)[C@H](CO)NC(=O)[C@@H](NC(=O)[C@H](Cc1ccccc1)NC(=O)[C@@H](NC(=O)CNC(=O)[C@H](CCC(N)=O)NC(=O)[C@H](CO)NC(=O)[C@@H](N)Cc1c[nH]cn1)[C@@H](C)O)[C@@H](C)O)C(=O)N[C@@H](C)C(=O)N[C@@H](C)C(=O)N[C@@H](Cc1c[nH]cn1)C(=O)N[C@@H](CC(=O)O)C(=O)N[C@@H](Cc1ccccc1)C(=O)N[C@H](C(=O)N[C@@H](CCC(=O)O)C(=O)N[C@@H](Cc1c[nH]c2ccccc12)C(=O)N[C@@H](CC(C)C)C(=O)N[C@@H](CC(C)C)C(=O)N[C@@H](CO)C(=O)N[C@@H](C)C(N)=O)C(C)C)C(=O)O [Compound 12, H-HSQGTFTSDYSRYLDS-K(Hexadecanoyl-isoGlu)-AAHDFVEWLLSA-NH2] (H-HSQGTFTSDYSRYLDSK([γGlu-Palmitoyl])AAHDFVEWLLSA-NH2) |
| 8.80 | 9.70 | 0.13 | 0.312 | 288 | 2 | 80 | 7.5 | 300 | CCCCCCCCCCCCCCCC(=O)N[C@@H](CCC(=O)NCCCC[C@H](NC(=O)[C@H](CO)NC(=O)[C@H](CC(=O)O)NC(=O)[C@H](CC(C)C)NC(=O)[C@H](Cc1ccc(O)cc1)NC(=O)[C@H](CCCCN)NC(=O)[C@H](CO)NC(=O)[C@H](Cc1ccc(O)cc1)NC(=O)[C@H](CC(=O)O)NC(=O)[C@H](CO)NC(=O)[C@@H](NC(=O)[C@H](Cc1ccccc1)NC(=O)[C@@H](NC(=O)CNC(=O)[C@H](CCC(N)=O)NC(=O)C(C)(C)NC(=O)[C@@H](N)Cc1c[nH]cn1)[C@@H](C)O)[C@@H](C)O)C(=O)N[C@@H](C)C(=O)N[C@@H](C)C(=O)N[C@@H](CCC(=O)O)C(=O)N[C@@H](CC(=O)O)C(=O)N[C@@H](Cc1ccccc1)C(=O)N[C@H](C(=O)N[C@@H](CCC(=O)O)C(=O)N[C@@H](Cc1c[nH]c2ccccc12)C(=O)N[C@@H](CC(C)C)C(=O)N[C@@H](CCC(=O)O)C(=O)N[C@@H](CO)C(=O)N[C@@H](C)C(N)=O)C(C)C)C(=O)O [Compound 16, H-H-Aib-QGTFTSDYSKYLDS-K(Hexadecanoyl-isoGlu)-AAEDFVEWLESA-NH2] (H-H[Aib]QGTFTSDYSKYLDSK([γGlu-Palmitoyl])AAEDFVEWLESA-NH2) |
| 9.01 | 9.29 | 0.52 | 0.148 | 378 | 4 | 76 | 14.7 | 516 | CCCCCCCCCCCCCCCC(=O)N[C@@H](CCC(=O)NCCCC[C@H](NC(=O)[C@H](CO)NC(=O)[C@H](CC(=O)O)NC(=O)[C@H](CC(C)C)NC(=O)[C@H](Cc1ccc(O)cc1)NC(=O)[C@H](CCCCN)NC(=O)[C@H](CO)NC(=O)[C@H](Cc1ccc(O)cc1)NC(=O)[C@H](CC(=O)O)NC(=O)[C@H](CO)NC(=O)[C@@H](NC(=O)[C@H](Cc1ccccc1)NC(=O)[C@@H](NC(=O)CNC(=O)[C@H](CCC(N)=O)NC(=O)C(C)(C)NC(=O)[C@@H](N)Cc1c[nH]cn1)[C@@H](C)O)[C@@H](C)O)C(=O)N[C@@H](C)C(=O)N[C@@H](C)C(=O)N[C@@H](Cc1c[nH]cn1)C(=O)N[C@@H](CC(=O)O)C(=O)N[C@@H](Cc1ccccc1)C(=O)N[C@H](C(=O)N[C@@H](CCC(=O)O)C(=O)N[C@@H](Cc1c[nH]c2ccccc12)C(=O)N[C@@H](CC(C)C)C(=O)N[C@@H](CC(C)C)C(=O)N[C@@H](CO)C(=O)N[C@@H](C)C(=O)O)C(C)C)C(=O)O [Compound 13, H-H-Aib-QGTFTSDYSKYLDS-K(Hexadecanoyl-isoGlu)-AAHDFVEWLLSA-OH] |
